The assay has as its target T1, human TRPV4 (Homo sapiens, UniProt Q9HBA0).
T1 construct: expressed in transfected cells
The assay is described as follows: Fluorometric cell-based Ca2+ flux assay, HEK-293 cells stably overexpressing human TRPV4. Particulars: HEK-293 stably overexpressing human TRPV4; agonist GSK1016790A 30 nM. In outline: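 HEK-293 cells stably overexpressing human TRPV4, Fluo 4-loaded, pre-incubated 30 min at 37° C with compound, then stimulated with 30 nM GSK1016790A (final). Max ΔF/s over 1 min, media-corrected, expressed relative to no-antagonist control; IC50 from ≥8 concentrations, ≥3 replicates.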

The structures appear in SMILES notation.

T1 sequence (Q9HBA0 whole entry): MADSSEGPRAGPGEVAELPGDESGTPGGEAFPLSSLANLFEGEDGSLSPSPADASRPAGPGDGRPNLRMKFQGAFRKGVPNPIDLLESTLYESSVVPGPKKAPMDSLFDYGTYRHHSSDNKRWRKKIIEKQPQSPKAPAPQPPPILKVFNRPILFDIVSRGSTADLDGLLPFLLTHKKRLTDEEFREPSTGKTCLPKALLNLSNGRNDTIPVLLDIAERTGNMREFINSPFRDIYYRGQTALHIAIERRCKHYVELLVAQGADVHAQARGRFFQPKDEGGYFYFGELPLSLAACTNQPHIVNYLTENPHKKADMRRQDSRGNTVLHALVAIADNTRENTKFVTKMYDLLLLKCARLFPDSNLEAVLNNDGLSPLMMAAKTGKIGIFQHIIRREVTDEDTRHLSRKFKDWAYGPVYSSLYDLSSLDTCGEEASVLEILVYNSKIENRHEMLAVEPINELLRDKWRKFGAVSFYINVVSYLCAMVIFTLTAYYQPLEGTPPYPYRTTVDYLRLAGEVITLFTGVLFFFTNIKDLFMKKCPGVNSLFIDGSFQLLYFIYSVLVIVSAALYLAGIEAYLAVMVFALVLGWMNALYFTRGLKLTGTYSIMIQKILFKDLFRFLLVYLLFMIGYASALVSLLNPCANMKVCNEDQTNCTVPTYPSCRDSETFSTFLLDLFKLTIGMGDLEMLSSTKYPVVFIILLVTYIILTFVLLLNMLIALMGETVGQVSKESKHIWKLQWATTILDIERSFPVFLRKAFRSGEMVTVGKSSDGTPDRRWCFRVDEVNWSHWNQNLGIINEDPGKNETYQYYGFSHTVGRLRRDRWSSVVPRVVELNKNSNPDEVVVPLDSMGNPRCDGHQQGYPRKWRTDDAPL

As a reminder, the IC50 is the concentration at which inhibition is half-maximal. Higher therefore signals a need for much substance. Take `N#Cc1ccc(OCC2(CO)CN(S(=O)(=O)c3ccc(Cl)cc3C#N)C2)cc1F` [Compound 81, 4-((1-((4-Chloro-2-cyanophenyl)sulfonyl)-3-(hydroxymethyl)azetidin-3-yl)methoxy)-2-fluorobenzonitrile]: the IC50 came to 5 nM.
Consider `Cc1ccc(S(=O)(=O)N2CC(CO)(COc3ccc(C#N)c(F)c3)C2)c(Cl)c1` [Compound 82, 4-((1-((2-Chloro-4-methylphenyl)sulfonyl)-3-(hydroxymethyl)azetidin-3-yl)methoxy)-2-fluorobenzonitrile], for which the IC50 was > 27 nM.
On to `COc1ccc(S(=O)(=O)N2CC(CO)(COc3ccc(C#N)c(F)c3)C2)c(Cl)c1` [Compound 83, 4-((1-((2-chloro-4-methoxyphenyl)sulfonyl)-3-(hydroxymethyl)azetidin-3-yl)methoxy)-2-fluorobenzonitrile], for which the IC50 was > 64 nM.
As to `N#Cc1ccc(OCC2(CO)CN(S(=O)(=O)c3ccc(Cl)cc3)C2)cc1F` [Compound 84, 4-((1-((4-Chlorophenyl)sulfonyl)-3-(hydroxymethyl)azetidin-3-yl)methoxy)-2-fluorobenzonitrile], the IC50 was > 302 nM.
The figure for `N#Cc1ccc(OCC2(CO)CN(S(=O)(=O)c3ccccc3C#N)C2)cc1F` [Compound 85, 4-((1-((2-Cyanophenyl)sulfonyl)-3-(hydroxymethyl)azetidin-3-yl)methoxy)-2-fluorobenzonitrile] is 4.9 nM.
With `N#Cc1ccc(OCC2(CO)CN(S(=O)(=O)c3ccc(C(F)(F)F)cc3C#N)C2)cc1F` [Compound 86, 4-((1-((2-Cyano-4-(trifluoromethyl)phenyl)sulfonyl)-3-(hydroxymethyl)azetidin-3-yl)methoxy)-2-fluorobenzonitrile] the figure was 22.3 nM.
With `O=S(=O)(c1ccc(Cl)cc1Cl)N1CC(CO)(COc2ccc(F)c(F)c2)C1` [Compound 87, (1-((2,4-Dichlorophenyl)sulfonyl)-3-((3,4-difluorophenoxy)methyl)azetidin-3-yl)methanol] the figure was 1000 to 3000 nM; with `N#Cc1ccc(OCC2(CO)CN(S(=O)(=O)c3ccc(Cl)cc3Cl)C2)c(Cl)c1` [Compound 88, 3-Chloro-4-((1-((2,4-dichlorophenyl)sulfonyl)-3-(hydroxymethyl)azetidin-3-yl)methoxy)benzonitrile], 500 nM.
Compound `N#Cc1cccc(OCC2(CO)CN(S(=O)(=O)c3ccc(Cl)cc3Cl)C2)c1` [Compound 89, 3-((1-((2,4-Dichlorophenyl)sulfonyl)-3-(hydroxymethyl)azetidin-3-yl)methoxy)benzonitrile] showed an IC50 of 1000 to 3000 nM.
With `COC(=O)c1ccc(OCC2(CO)CN(S(=O)(=O)c3ccc(Cl)cc3Cl)C2)cc1` [Compound 90, Methyl 4-((1-((2,4-dichlorophenyl)sulfonyl)-3-(hydroxymethyl)azetidin-3-yl)methoxy)benzoate] the figure was ~5000 nM; with `O=S(=O)(c1ccc(Cl)cc1Cl)N1CC(CO)(COc2ccncc2)C1` [Compound 91, (1-((2,4-Dichlorophenyl)sulfonyl)-3-((pyridin-4-yloxy)methyl)azetidin-3-yl)methanol], ~5000 nM.
With `Cc1ccc(OCC2(CO)CN(S(=O)(=O)c3ccc(Cl)cc3Cl)C2)cc1` [Compound 92, (1-((2,4-Dichlorophenyl)sulfonyl)-3-((p-tolyloxy)methyl)azetidin-3-yl)methanol] the figure was ~5000 nM; with `NC(=O)c1ccc(OCC2(CO)CN(S(=O)(=O)c3ccc(Cl)cc3Cl)C2)cc1` [Compound 93, 4-((1-((2,4-Dichlorophenyl)sulfonyl)-3-(hydroxymethyl)azetidin-3-yl)methoxy)benzamide], ~5000 nM; with `O=S(=O)(c1ccc(Cl)cc1Cl)N1CC(CO)(COc2ccnc(Cl)c2)C1` [Compound 94, (3-(((2-Chloropyridin-4-yl)oxy)methyl)-1-((2,4-dichlorophenyl)sulfonyl)azetidin-3-yl)methanol], ~3000 nM.
With `Cc1cc(OCC2(CO)CN(S(=O)(=O)c3ccc(Cl)cc3Cl)C2)ccn1` [Compound 95, (1-((2,4-Dichlorophenyl)sulfonyl)-3-(((2-methylpyridin-4-yl)oxy)methyl)azetidin-3-yl)methanol] the figure was ~3000 nM.
Turning to `O=S(=O)(c1ccc(Cl)cc1Cl)N1CC(CO)(COc2cccnc2)C1` [Compound 97, (1-((2,4-Dichlorophenyl)sulfonyl)-3-((pyridin-3-yloxy)methyl)azetidin-3-yl)methanol], the IC50 is ~5000 nM.
The figure for `COc1cc(C#N)ccc1OCC1(CO)CN(S(=O)(=O)c2ccc(Cl)cc2Cl)C1` [Compound 98, 4-((1-((2,4-Dichlorophenyl)sulfonyl)-3-(hydroxymethyl)azetidin-3-yl)methoxy)-3-methoxybenzonitrile] is 67.2 nM; for `CCOc1cc(OCC2(COC(=O)c3ccc(Br)cc3)CN(S(=O)(=O)c3ccc(Cl)cc3Cl)C2)ccc1C#N` [Compound 99, (3-((4-Cyano-3-ethoxyphenoxy)methyl)-1-((2,4-dichlorophenyl)sulfonyl)azetidin-3-yl)methyl 4-bromobenzoate] it is > 1000 nM.
The figure for `CCOc1cc(OCC2(CO)CN(S(=O)(=O)c3ccc(Cl)cc3Cl)C2)ccc1C#N` [Compound 100, 4-((1-((2,4-Dichlorophenyl)sulfonyl)-3-(hydroxymethyl)azetidin-3-yl)methoxy)-2-ethoxybenzonitrile] is > 1000 nM.
The figure for `N#Cc1ccc(NCC2(CO)CN(S(=O)(=O)c3ccc(Cl)cc3Cl)C2)cc1F` [Compound 101, 4-(((1-((2,4-dichlorophenyl)sulfonyl)-3-(hydroxymethyl)azetidin-3-yl)methyl)amino)-2-fluorobenzonitrile] is 136 nM; for `COc1ccc(S(=O)(=O)N2CC(CO)(COc3ccc(C#N)c(F)c3)C2)c(Br)c1` [Compound 102, 4-((1-((2-Bromo-4-methoxyphenyl)sulfonyl)-3-(hydroxymethyl)azetidin-3-yl)methoxy)-2-fluorobenzonitrile] it is 231 nM.
For `Cc1ccc(S(=O)(=O)N2CC(CO)(COc3ccc(C#N)c(F)c3)C2)c(C#N)c1` [Compound 103, 4-((1-((2-Cyano-4-methylphenyl)sulfonyl)-3-(hydroxymethyl)azetidin-3-yl)methoxy)-2-fluorobenzonitrile], the IC50 turned out to be 14.7 nM.
The figure for `N#Cc1ccc(OCC2(CO)CN(S(=O)(=O)c3ccc(F)cc3C#N)C2)cc1F` [Compound 104, 4-((1-((2-Cyano-4-fluorophenyl)sulfonyl)-3-(hydroxymethyl)azetidin-3-yl)methoxy)-2-fluorobenzonitrile] is 29.3 nM; for `N#Cc1ccc(OCC2(CO)CN(S(=O)(=O)c3ccc(OC(F)(F)F)cc3Br)C2)cc1F` [Compound 105, 4-((1-((2-Bromo-4-(trifluoromethoxy)phenyl)sulfonyl)-3-(hydroxymethyl)azetidin-3-yl)methoxy)-2-fluorobenzonitrile] it is 1200 nM.
The compound `COc1ccc(S(=O)(=O)N2CC(CO)(COc3ccc(C#N)c(F)c3)C2)c(C#N)c1` [Compound 106, 4-((1-((2-Cyano-4-methoxyphenyl)sulfonyl)-3-(hydroxymethyl)azetidin-3-yl)methoxy)-2-fluorobenzonitrile] displayed an IC50 of 145 nM.
With `N#Cc1ccc(OCC2(CO)CN(S(=O)(=O)c3ccc(OC(F)(F)F)cc3C#N)C2)cc1F` [Compound 107, 4-((1-((2-Cyano-4-trifluoromethoxyphenyl)sulfonyl)-3-(hydroxymethyl)azetidin-3-yl)methoxy)-2-fluorobenzonitrile] the figure was 80 nM; with `COc1cc(C#N)c(F)cc1OCC1(CO)CN(S(=O)(=O)c2ccc(Cl)cc2Cl)C1` [Compound 108, 4-((1-((2,4-Dichlorophenyl)sulfonyl)-3-(hydroxymethyl)azetidin-3-yl)methoxy)-2-fluoro-5-methoxybenzonitrile], 528 nM.
With `COc1cc(C#N)c(F)cc1OCC1(CO)CN(S(=O)(=O)c2ccccc2C#N)C1` [Compound 109, 4-((1-((2-Cyanophenyl)sulfonyl)-3-(hydroxymethyl)azetidin-3-yl)methoxy)-2-fluoro-5-methoxybenzonitrile] the figure was 940 nM; with `COc1cc(C#N)c(F)cc1OCC1(CO)CN(S(=O)(=O)c2ccc(C)cc2C#N)C1` [Compound 110, 4-((1-((2-Cyano-4-methylphenyl)sulfonyl)-3-(hydroxymethyl)azetidin-3-yl)methoxy)-2-fluoro-5-methoxybenzonitrile], 241 nM; with `N#Cc1ccc(OCC2(CNC3COC3)CN(S(=O)(=O)c3ccccc3C#N)C2)cc1F` [Compound 111, 4-((1-((2-Cyanophenyl)sulfonyl)-3-((oxetan-3-ylamino)methyl)azetidin-3-yl)methoxy)-2-fluorobenzonitrile], 47.6 nM.
Compound `N#Cc1ccc(OCC2(CN[C@H]3CC[C@H](O)CC3)CN(S(=O)(=O)c3ccccc3C#N)C2)cc1F` [Compound 112, 4-((1-((2-Cyanophenyl)sulfonyl)-3-(((trans-4-hydroxycyclohexyl)amino)methyl)azetidin-3-yl)methoxy)-2-fluorobenzonitrile] yielded a concentration for half-maximal inhibition (IC50) of 0.29 nM.
`N#Cc1ccc(OCC2(CN[C@H]3C[C@H](O)C3)CN(S(=O)(=O)c3ccccc3C#N)C2)cc1F` [Compound 113, 4-((1-((2-Cyanophenyl)sulfonyl)-3-(((trans-3-hydroxycyclobutyl)amino)methyl)azetidin-3-yl)methoxy)-2-fluorobenzonitrile] registered an IC50 of 0.79 nM.
The figure for `CCOC(=O)CCNCC1(COc2ccc(C#N)c(F)c2)CN(S(=O)(=O)c2ccccc2C#N)C1` [Compound 114, Ethyl 3-(((3-((4-cyano-3-fluorophenoxy)methyl)-1-((2-cyanophenyl)sulfonyl)azetidin-3-yl)methyl)amino)propanoate] is 6.45 nM.
The figure for `N#Cc1ccc(OCC2(CNCC(O)CO)CN(S(=O)(=O)c3ccccc3C#N)C2)cc1F` (stereo not shown) [Compound 115, 4-((1-((2-Cyanophenyl)sulfonyl)-3-(((2,3-dihydroxypropyl)amino)methyl)azetidin-3-yl)methoxy)-2-fluorobenzonitrile] is 1.98 nM.
